According to patent US10005756B2, “Pyrrolidinone derivatives as MetAP-2 inhibitors” (Merck Patent GmbH, priority 2014, dated 2018):
Like-named read-outs stand apart in the source and are kept apart here.

System: human umbilical vein endothelial cells (HUVEC)
Test: HUVEC proliferation quantified by BrdU incorporation
Assay type: cell-based
Conditions: for IC50: read-out: IC50 HUVEC
Description: Determination of the Proliferation Inhibition by Inhibitors of Methionine Aminopeptidase 2 in the BrdU Proliferation Test (Cellular Assay)
After detachment of the cells by means of trypsin/EDTA, the number of living cells is determined, and the cells are sown in a density of 1000 cells per cavity in a total volume of 175 μl (cavities are coated in advance either with supplemented culture medium for 1-2 hours at 37° C. or with 1.5% gelatine for 0.5-2 hours at 37° C.). After cultivation for 24 hours, the test substances are added in various concentrations (for example final concentrations 30 μM to 0.03 nM in 10-fold dilution steps) and a volume of 25 μl. The DMSO concentration is kept constant at 0.3%. […] To this end, the cells are treated with a fixative for 30 min at room temperature and subsequently incubated with a peroxidase-labelled anti-BrdU antibody (diluted 1:100 in antibody dilution buffer) for 60 min at room temperature. […] The colour development is stopped after 15 min by addition of 25 μl of a 1M sulfuric acid solution. […] The controls used are cavities containing DMSO-treated cells (100% control) or empty cavities (blank value).
HUVEC Proliferation Quantified by BrdU Incorporation
HUVEC Means Human Umbilical Vein Endothelial Cells
HUVEC proliferation is measured after a 5 day incubation period using incorporation of BrdU as a measure of cell cycle activity. Cells are incubated in the presence or absence of test substances. During the last 18 to 24 hours of the incubation period BrdU is added to the medium. BrdU is incorporated into the DNA as the cells progress through S-phase (DNA synthesis) of the cell cycle. The cells are fixed and the amount of BrdU incorporated can be quantified using a commercial ELISA for detection of BrdU.
HUVEC are routinely cultured in EGM MV medium and used between passages 3 and 8.
All substances are run in triplicate.
Reference compounds are run in every assay.
Data is analyzed using the Assay Explorer program. Briefly, the blank is subtracted from all values, the triplicates are averaged and normalized to the untreated. EC50 is determined from a 4-parameter general sigmoidal curve (Hill fit y=(s0−slnf)/(1+(x/AC50)^nHill)+slnf) in Assay Explorer, Symyx). The processed data (EC50 or % Effect if no EC50 if reached, Efficacy) is uploaded directly from Assay Explorer to the MSRDB.

Row | Compound | IC50 (HUVEC) | further results
1 | CC(C)C(NC(=O)CN1CCC(O)(C(=O)NCc2cc(F)cc(Cl)c2)C1=O)C(=O)N(C)C (stereo not shown) [Compound A46] | 45 nM | –
2 | O=C(NCc1cc(F)cc(Cl)c1)[C@@]1(O)C(=O)N(c2ccccc2)C[C@@H]1O [Compound A87] | 2300 nM | –
3 | O=C(NCc1cc(F)cc(Cl)c1)[C@@]1(O)CCN(c2ccc3[nH]c(-c4nnco4)cc3c2)C1=O [Compound A9] | 14 nM | –
4 | COc1ccc(Cn2ccc3cc(N4CC[C@](O)(C(=O)NCc5cc(F)cc(F)c5)C4=O)cnc32)cc1 [Compound A76] | 260 nM | –
5 | Cc1nc(-c2cc3cc(N4CC[C@](O)(C(=O)NCc5cc(F)cc(Cl)c5)C4=O)ccc3[nH]2)no1 [Compound A11] | 24 nM | –
6 | N/C(=N\O)c1cc2cc(N3CC[C@](O)(C(=O)NCc4cc(F)cc(Cl)c4)C3=O)ccc2[nH]1 [Compound A6] | 30 nM | –
7 | O=C(NCc1cc(F)cc(Cl)c1)[C@@]1(O)CCN(c2cnc3[nH]cc(F)c3c2)C1=O [Compound A53] | 39 nM | –
8 | NC(=O)c1cc2cc(N3CC[C@@](O)(C(=O)NCc4cc(F)cc(F)c4)C3=O)ccc2[nH]1 (stereo in doubt) [Compound A86] | 71 nM | –
9 | O=C(NCc1cc(F)cc(F)c1)[C@@]1(O)CCN(c2cnc3[nH]ccc3c2)C1=O [Compound A78] | 35 nM | –
10 | O=C(NCc1cc(F)cc(Cl)c1)[C@@]1(O)CCN(c2cncnc2)C1=O [Compound A26] | 11000 nM | –
11 | O=CNCCCCNC(=O)c1cc2cc(N3CC[C@](O)(C(=O)NCc4cc(F)cc(Cl)c4)C3=O)ccc2[nH]1 [Compound A68] | 110 nM | –
12 | O=C(NCc1cc(F)cc(Cl)c1)C1(O)CCN(c2ccc3c(c2)CS(=O)(=O)C3)C1=O (stereo not shown) [Compound A28] | 530 nM | –
13 | O=C(NCc1cc(F)cc(Cl)c1)C1(O)C(=O)N(c2ccccc2)CC1O (stereo not shown) [Compound A13] | 2500 nM | –
14 | O=C(NCc1cc(F)cc(Cl)c1)C1(O)CCN(c2ccc3[nH]c(Br)cc3c2)C1=O (stereo not shown) [Compound A22] | 130 nM | –
15 | O=C(NCc1cc(F)cc(Cl)c1)C1(O)CCN(c2cccc(O)c2)C1=O (stereo not shown) [Compound A18] | 180 nM | –
16 | O=C(NCc1cc(F)cc(Cl)c1)C1(O)CCN(c2ccc3c(c2)CCOB3O)C1=O (stereo not shown) [Compound A74] | 14 nM | –
17 | O=C(NCc1cc(F)cc(Cl)c1)C1=CCN(c2ccccc2)C1=O [Compound A12] | – | IC50 (HUVEC proliferation, BrdU incorporation): 3300 nM
18 | O=C(NCc1cc(F)cc(Cl)c1)[C@@]1(O)CCN(c2cnc3[nH]cc(Br)c3c2)C1=O [Compound A33] | 5.4 nM | –
19 | C[S@](=N)(=O)c1cccc(N2CC[C@](O)(C(=O)NCc3cc(F)cc(Cl)c3)C2=O)c1 [Compound A81] | 540 nM | –
20 | NC(=O)CC[C@H](NC(=O)c1cc2cc(N3CC[C@](O)(C(=O)NCc4cc(F)cc(Cl)c4)C3=O)ccc2[nH]1)C(=O)O [Compound A39] | 3100 nM | –

Row | Compound | IC50 (HUVEC) | further results
21 | C[C@H](c1ccccc1)N1CC[C@](O)(C(=O)NCc2cc(F)cc(Cl)c2)C1=O [Compound A2] | 7000 nM | –
22 | NCCCNC(=O)[C@H](CCC(N)=O)NC(=O)c1cc2cc(N3CC[C@](O)(C(=O)NCc4cc(F)cc(Cl)c4)C3=O)ccc2[nH]1 [Compound A50] | 3500 nM | –
23 | O=C(NCc1cc(F)cc(Cl)c1)C1(O)CCN(c2ccc3c(c2)CS(=O)(=O)N3)C1=O (stereo not shown) [Compound A42] | 1300 nM | –
24 | O=C(NCc1cc(F)cc(Cl)c1)C1(O)CCN(c2ccn[nH]2)C1=O (stereo not shown) [Compound A15] | 5200 nM | –
25 | O=C(NCc1cc(F)cc(F)c1)[C@@]1(O)CCN(c2cnc3[nH]cc(Cl)c3c2)C1=O [Compound A79] | 6.5 nM | –
26 | O=C(NCc1cc(F)cc(Cl)c1)C1(O)CCN(c2ccc3c(c2)CC(C2CC2)N3)C1=O (stereo not shown) [Compound A47] | 40 nM | –
27 | O=C(NCc1cc(F)cc(Cl)c1)[C@@]1(O)CCN(c2ccc(OC(F)(F)F)cc2)C1=O [Compound A65] | 1500 nM | –
28 | C[S@@](=N)(=O)c1ccc(N2CC[C@](O)(C(=O)NCc3cc(F)cc(Cl)c3)C2=O)cc1 [Compound A69] | 300 nM | –
29 | CS(=N)(=O)c1cccc(N2CCC(O)(C(=O)NCc3cc(F)cc(Cl)c3)C2=O)c1 (stereo not shown) [Compound A71] | 1400 nM | –
30 | CS(=N)(=O)c1ccc(N2CCC(O)(C(=O)NCc3cc(F)cc(Cl)c3)C2=O)cc1 (stereo not shown) [Compound A64, 3-hydroxy-1-(4-methanesulfoximinoyl-phenyl)-2-oxo-pyrrolidine-3-carboxylic acid 3-chloro-5-fluoro-benzylamide] | 6100 nM | –
31 | CO[C@@H]1[C@H](OC(=O)NC(=O)CCl)CC[C@]2(CO2)[C@H]1[C@@]1(C)O[C@@H]1CC=C(C)C [MSC1902850A, TNP-470, reference compound] | – | EC50 (HUVEC, reference compounds run in every assay, expected value, read-out: expected value (EC50) of reference compound): 0.8 nM
32 | C[S@](=N)(=O)c1ccc(N2CC[C@](O)(C(=O)NCc3cc(F)cc(Cl)c3)C2=O)cc1 [Compound A70] | 700 nM | –
33 | O=C(NCc1cc(F)cc(Cl)c1)[C@@]1(O)CCN(c2ccc3[nH]c(-c4nnn[nH]4)cc3c2)C1=O [Compound A10] | 3800 nM | –
34 | O=C(NCc1cc(F)cc(Cl)c1)[C@@]1(O)CCN(c2cnc3[nH]c(Cl)c(Cl)c3c2)C1=O [Compound A62] | 180 nM | –
35 | O=C(NCc1cc(F)cc(Cl)c1)C1(O)CCN(c2ccc(C(F)F)cc2)C1=O (stereo not shown) [Compound A60] | 1800 nM | –
36 | COc1ccc(CN2c3ccc(N4CCC(O)(C(=O)NCc5cc(F)cc(Cl)c5)C4=O)cc3CS2(=O)=O)cc1 (stereo not shown) [Compound A43] | 820 nM | –
37 | CCNS(=O)(=O)c1ccc(N2CC[C@](O)(C(=O)NCc3cc(F)cc(Cl)c3)C2=O)cc1 [Compound A5] | 190 nM | –
38 | Cc1nnc(-c2cc3cc(N4CC[C@](O)(C(=O)NCc5cc(F)cc(Cl)c5)C4=O)ccc3[nH]2)o1 [Compound A8] | 17 nM | –
39 | O=C(NCc1cc(F)cc(Cl)c1)C1(O)CCN(C(CO)c2ccccc2)C1=O (stereo not shown) [Compound A21] | 4200 nM | –
40 | O=C(NCc1cc(F)cc(Cl)c1)[C@@]1(O)CCN(c2cccc(S(=O)(=O)N3CCNCC3)c2)C1=O [Compound A1] | 1000 nM | –

Row | Compound | IC50 (HUVEC) | further results
41 | O=C(NCc1cc(F)cc(Cl)c1)[C@@]1(O)CCN(c2cnc3[nH]cc(I)c3c2)C1=O [Compound A34] | 6.7 nM | –
42 | CN(C)C(=O)CNC(=O)[C@H](CCC(N)=O)NC(=O)c1cc2cc(N3CC[C@](O)(C(=O)NCc4cc(F)cc(Cl)c4)C3=O)ccc2[nH]1 [Compound A51] | 8100 nM | –
43 | C[S@@](=N)(=O)c1cccc(N2CC[C@](O)(C(=O)NCc3cc(F)cc(Cl)c3)C2=O)c1 [Compound A82] | 310 nM | –
44 | O=C(NCc1cc(F)cc(Cl)c1)C1(O)CCN(c2cccc(-c3nnn[nH]3)c2)C1=O (stereo not shown) [Compound A7] | 30000 nM | –
45 | O=C(NCc1cc(F)cc(F)c1)[C@@]1(O)CCN(c2cnc3[nH]cc(F)c3c2)C1=O [Compound A89] | 32 nM | –
46 | CC(C)(C)OC(=O)C(CCC(N)=O)NC(=O)c1cc2cc(N3CC[C@](O)(C(=O)NCc4cc(F)cc(Cl)c4)C3=O)ccc2[nH]1 (stereo in doubt) [Compound A27] | 480 nM | –
47 | NC(=O)CC[C@H](NC(=O)c1cc2cc(N3CC[C@](O)(C(=O)NCc4cc(F)cc(Cl)c4)C3=O)ccc2[nH]1)C(=O)N[C@@H](Cc1ccccc1)C(N)=O [Compound A52] | 4400 nM | –
48 | CC(=O)Nc1cc2cc(N3CCC(O)(C(=O)NCc4cc(F)cc(Cl)c4)C3=O)ccc2oc1=O (stereo not shown) [Compound A17] | 1100 nM | –
49 | Nc1ccc(N2CCC(O)(C(=O)NCc3cc(F)cc(Cl)c3)C2=O)cc1/C=C/C(=O)O (stereo not shown) [Compound A19] | 180 nM | –
50 | O=C1Cc2cc(N3CC[C@](O)(C(=O)NCc4cc(F)cc(F)c4)C3=O)ccc2N1 [Compound A66] | 76 nM | –
51 | O=C(NCc1cc(F)cc(Cl)c1)[C@@]1(O)CCN(c2ccc3c(c2)COB3O)C1=O [Compound A41] | 260 nM | –
52 | O=C(NCc1cc(F)cc(Cl)c1)C1(O)CCN(c2ccc3[nH]c(-c4ccc(Cl)cc4)nc3c2)C1=O (stereo not shown) [Compound A25] | 1300 nM | –
53 | NC(=O)c1ccc2cc(N3CCC(O)(C(=O)NCc4cc(F)cc(Cl)c4)C3=O)ccc2n1 (stereo not shown) [Compound A83] | 500 nM | –
54 | O=C(NCc1cc(F)cc(Cl)c1)C1(O)CCN(c2ccc3oc(=O)ccc3c2)C1=O (stereo not shown) [Compound A16] | 3500 nM | –
55 | O=C(NCc1cc(F)cc(F)c1)[C@@]1(O)CCN(c2ccc3[nH]ncc3c2)C1=O [Compound A75, (S)-3-Hydroxy-1-(1H-indazol-5-yl)-2-oxo-pyrrolidine-3-carboxylic acid 3,5-difluoro-benzylamide] | 42 nM | –
56 | NCCCNC(=O)c1cc2cc(N3CC[C@](O)(C(=O)NCc4cc(F)cc(Cl)c4)C3=O)ccc2[nH]1 [Compound A40] | 200 nM | –
57 | O=C(NCc1cc(F)cc(Cl)c1)[C@@]1(O)CCN(c2cccc(OC(F)(F)F)c2)C1=O [Compound A67] | 290 nM | –
58 | O=C(NCc1cc(F)cc(Cl)c1)C1(O)CCN(c2ccc(C(O)(C(F)(F)F)C(F)(F)F)cc2)C1=O (stereo not shown) [Compound A29] | 1500 nM | –
